Results from PubChem BioAssay AID1259408 (Genetic Toxicology Data Bank (GENE-TOX), 2018).
Active and inactive are the calls of the source. No rule for the calls is given here.

System: GENE-TOX genotoxicity assays, various organisms and cells
Experiment: GENE-TOX mutagenicity studies
Conditions: for call: Assay Type: In vivo carcinogenicity studies
Excerpt: GENE-TOX provides genetic toxicology (mutagenicity) test data from expert peer review of open scientific literature for more than 3,000 chemicals from the United States Environmental Protection Agency (EPA). GENE-TOX was established to select assay systems for evaluation, review data in the scientific literature, and recommend proper testing protocols and evaluation procedures for these systems.
GENE-TOX covers the years 1991 - 1998. It is no longer updated.
This is an archive assay for GENE-TOX mutagenicity studies.

[1] = Species/Cell Type: Escherichia coli polA (W3119 vs P3478), Assay Type: Rec-assay, DNA effects (bacterial DNA repair), Assay Code: RE1T, Evaluation Type: Evaluation A (Pre-1980)
[2] = Species/Cell Type: Saccharomyces cerevisiae, Assay Type: Mitotic recombination or gene conversion, Assay Code: YEH-, Evaluation Type: Evaluation A (Pre-1980)
[3] = Species/Cell Type: Drosophila melanogaster, Assay Type: Sex-linked recessive lethal gene mutation, Assay Code: SRL+, Evaluation Type: Evaluation A (Pre-1980)
[4] = Species/Cell Type: Saccharomyces cerevisiae, Assay Type: Mitotic recombination or gene conversion, Assay Code: YEC+, Evaluation Type: Evaluation A (Pre-1980)
[5] = Species/Cell Type: Salmonella typhimurium (one or more of the five standard strains: TA98, TA100, TA1535, TA1537, and TA1538), Assay Type: Histidine reverse gene mutation, Ames assay, Assay Code: SAL+, Evaluation Type: Evaluation A (Pre-1980)
[6] = Species/Cell Type: Nonhuman, Assay Type: Sister-chromatid exchange (SCE) in vitro, Assay Code: SC2+D, Dose Response: With dose response, Evaluation Type: Evaluation B (Post-1980)
[7] = Species/Cell Type: Escherichia coli polA (W3119 vs P3478), Assay Type: Rec-assay, DNA effects (bacterial DNA repair), Assay Code: RE1+, Evaluation Type: Evaluation A (Pre-1980)
[8] = Species/Cell Type: Salmonella typhimurium (one or more of the five standard strains: TA98, TA100, TA1535, TA1537, and TA1538), Assay Type: Histidine reverse gene mutation, Ames assay, Assay Code: SAL+*, Activation: With metabolic activation, Evaluation Type: Evaluation A (Pre-1980)
[9] = Species/Cell Type: Allium cepa, Assay Type: Chromosome aberrations, Assay Code: ALC+D, Dose Response: With dose response, Evaluation Type: Evaluation A (Pre-1980)

`CC1CCCCC1NC(=O)Nc1ccccc1` (centres undefined) was tested, and the mutagenic call (Species/Cell Type: Bacillus subtilis (H17 vs M45), Assay Type: Rec-assay, spot test, DNA effects (bacterial DNA repair), Assay Code: REWT, Evaluation Type: Evaluation A (Pre-1980)) was “no conclusion”, the mutagenic call (Species/Cell Type: Drosophila melanogaster, Assay Type: Sex-linked recessive lethal gene mutation, Assay Code: SRL-, Evaluation Type: Evaluation A (Pre-1980)) was “inactive; negative” and the mutagenic call (Species/Cell Type: Escherichia coli WP2 UVRA, Assay Type: Tryptophan reverse gene mutation, Assay Code: WPU-*, Activation: With metabolic activation, Evaluation Type: Evaluation A (Pre-1980)) was “inactive; negative”. For the same compound, the mutagenic call [1] was “no conclusion”, the mutagenic call (Species/Cell Type: Human diploid fibroblasts, Assay Type: Unscheduled DNA synthesis (UDS) in vitro, DNA effects, Assay Code: UDH-, Evaluation Type: Evaluation A (Pre-1980)) was “inactive; negative” and the mutagenic call [2] was “inactive; negative”. The mutagenic call (Species/Cell Type: Salmonella typhimurium (one or more of the five standard strains: TA98, TA100, TA1535, TA1537, and TA1538), Assay Type: Histidine reverse gene mutation, Ames assay, Assay Code: SAL-, Evaluation Type: Evaluation A (Pre-1980)) was “inactive; negative”.
`CS(=O)(=O)OCCNC(=O)N(CCCl)N=O` was tested, and the mutagenic call [3] was “active; positive” and the mutagenic call [4] was “active; positive”.
With `CC(C)NC(=O)/C=C/c1ccc([N+](=O)[O-])o1` the mutagenic call (Species/Cell Type: Chinese hamster lung (V79) cells, Assay Type: Forward gene mutation at the HPRT or ouabain locus, Assay Code: V79+, Evaluation Type: Evaluation A (Pre-1980)) was “active; positive”, the mutagenic call (Species/Cell Type: Neurospora crassa, Assay Type: Forward gene mutation, Assay Code: NEF+, Evaluation Type: Evaluation A (Pre-1980)) was “active; positive” and the mutagenic call (Species/Cell Type: Neurospora crassa, Assay Type: Reverse gene mutation, Assay Code: NER+, Evaluation Type: Evaluation A (Pre-1980)) was “active; positive”. For the same compound, the mutagenic call [4] was “active; positive” and the mutagenic call [5] was “active; positive”.
`Clc1ccc(Oc2c(Cl)cc(Cl)cc2Cl)cc1` was tested, and the mutagenic call (Species/Cell Type: Saccharomyces cerevisiae, Assay Type: Forward gene mutation, Assay Code: YEF-, Evaluation Type: Evaluation A (Pre-1980)) was “inactive; negative”, the mutagenic call (Species/Cell Type: Saccharomyces cerevisiae, Assay Type: Mitotic recombination or gene conversion, Assay Code: YEC-, Evaluation Type: Evaluation A (Pre-1980)) was “inactive; negative” and the mutagenic call [2] was “inactive; negative”.
`O=C1c2ccccc2C(=O)c2c(NCCNCCO)ccc(NCCNCCO)c21` was tested, and the mutagenic call [6] was “active; positive”.
`CCN(CC)C(=O)OC1(SC)C(=O)c2ccccc2C1=O` was tested, and the mutagenic call (Species/Cell Type: Salmonella typhimurium, Assay Type: Forward and reverse gene mutation, host-mediated assay, Assay Code: HMA+, Evaluation Type: Evaluation A (Pre-1980)) was “active; positive”.
In the case of `CCN(CC)CCCC(C)Nc1ccnc2cc(Cl)ccc12` (centres undefined), the mutagenic call [7] was “active; positive” and the mutagenic call (Species/Cell Type: Mammalian cell culture, nonhuman, Assay Type: Micronucleus test in vitro, chromosome aberrations, Assay Code: MN&+, Evaluation Type: Evaluation A (Pre-1980)) was “active; positive”.
In the case of `CC(=O)Nc1ccc(NC(C)=O)c2c1C(=O)c1ccccc1C2=O`, the mutagenic call [8] was “active; positive”.
In the case of `Clc1ccc(COC(Cn2ccnc2)c2ccc(Cl)cc2Cl)cc1` (centres undefined), the mutagenic call (Species/Cell Type: Aspergillus nidulans, Assay Type: Aneuploidy, chromosome aberrations, Assay Code: ASN+, Evaluation Type: Evaluation A (Pre-1980)) was “active; positive”.
With `c1ccc2c(c1)c1cccc3ccc4cccc2c4c31` the mutagenic call (Species/Cell Type: Chinese hamster lung (V79) cells, Assay Type: Forward gene mutation at the HPRT or ouabain locus, Assay Code: V79-, Evaluation Type: Evaluation A (Pre-1980)) was “inactive; negative”, the mutagenic call (Species/Cell Type: Escherichia coli polA (W3110 vs P3478), Assay Type: Rec-assay, DNA effects (bacterial DNA repair), Assay Code: RE2-, Evaluation Type: Evaluation A (Pre-1980)) was “inactive; negative” and the mutagenic call [1] was “no conclusion”. The mutagenic call (Species/Cell Type: Fischer rat embryo (RLV/1706) cells, Assay Type: Cell transformation, viral enhanced, Assay Code: CTR-, Evaluation Type: Evaluation A (Pre-1980)) was “inactive; negative”, the mutagenic call (Species/Cell Type: Human diploid fibroblasts, Assay Type: Unscheduled DNA synthesis (UDS) in vitro, DNA effects, Assay Code: UDH+*, Activation: With metabolic activation, Evaluation Type: Evaluation A (Pre-1980)) was “active; positive” and the mutagenic call (Species/Cell Type: Mouse (BALB/c-3T3) cells, Assay Type: Cell transformation, Assay Code: CTB-, Evaluation Type: Evaluation A (Pre-1980)) was “inactive; negative”. For the same compound, the mutagenic call (Species/Cell Type: Mouse lymphoma (L5178Y) cells, Assay Type: Forward gene mutation at the thymidine kinase (TK) locus, chromosome aberrations, Assay Code: L51T, Evaluation Type: Evaluation A (Pre-1980)) was “no conclusion”, the call (Species/Cell Type: Nonhuman, Assay Code: CCGT, Evaluation Type: Evaluation A (Pre-1980)) was “no conclusion” and the mutagenic call (Species/Cell Type: Nonhuman, Assay Type: Sister-chromatid exchange (SCE) in vitro, Assay Code: SC2T, Evaluation Type: Evaluation B (Post-1980)) was “no conclusion”. The mutagenic call (Species/Cell Type: Nonhuman, Assay Type: Sister-chromatid exchange (SCE) in vivo, Assay Code: SC3+, Evaluation Type: Evaluation B (Post-1980)) was “active; positive”, the mutagenic call (Species/Cell Type: Nonhuman, Assay Type: Sister-chromatid exchange (SCE) in vivo, Assay Code: SC3T, Evaluation Type: Evaluation A (Pre-1980)) was “no conclusion” and the mutagenic call [2] was “inactive; negative”. The mutagenic call [8] was “active; positive” and the mutagenic call (Species/Cell Type: Syrian hamster embryo (SHE) cells, Assay Type: Cell transformation, clonal assay, Assay Code: CTC-, Evaluation Type: Evaluation A (Pre-1980)) was “inactive; negative”.
In the case of `ClCCCl`, the mutagenic call (Species/Cell Type: Chinese hamster ovary (CHO) cells, Assay Type: Forward gene mutation at the HPRT locus, Assay Code: CHO+, Evaluation Type: Evaluation B (Post-1980)) was “active; positive”, the mutagenic call (Species/Cell Type: Drosophila melanogaster, Assay Type: Aneuploidy, sex chromosome gain, chromosome aberrations, Assay Code: DAG+F, Evaluation Type: Evaluation A (Pre-1980)) was “active; positive” and the mutagenic call (Species/Cell Type: Drosophila melanogaster, Assay Type: Aneuploidy, whole sex chromosome loss, chromosome aberrations, Assay Code: DAC+F, Evaluation Type: Evaluation A (Pre-1980)) was “active; positive”. For the same compound, the mutagenic call [3] was “active; positive”, the mutagenic call [7] was “active; positive” and the call (Species/Cell Type: Nonhuman, Assay Code: CCG+, Evaluation Type: Evaluation A (Pre-1980)) was “active; positive”. For the same compound, the mutagenic call [8] was “active; positive”, the mutagenic call (Species/Cell Type: Salmonella typhimurium, Assay Type: Forward and reverse gene mutation, body fluid assay, Assay Code: BFU+, Evaluation Type: Evaluation A (Pre-1980)) was “active; positive” and the mutagenic call (Species/Cell Type: Syrian hamster embryo (SA7/SHE) cells, Assay Type: Cell transformation, viral enhanced, Assay Code: CT7+, Evaluation Type: Evaluation A (Pre-1980)) was “active; positive”.
`[Hg][c]1ccccc1` was tested, and the mutagenic call [9] was “active; positive”.
For `O=C(OCC1=CCN2CC[C@@H](OC(=O)c3ccc4c(c3)OCO4)[C@@H]12)c1ccc2c(c1)OCO2`, the mutagenic call (Species/Cell Type: Allium cepa, Assay Type: Chromosome aberrations, Assay Code: ALC+, Evaluation Type: Evaluation A (Pre-1980)) was “active; positive”.
With `CO[C@H](C)[C@](O)(C(=O)OCC1=CCN2CC[C@H](O)[C@@H]12)C(C)C` the mutagenic call [9] was “active; positive”, the mutagenic call (Species/Cell Type: Aspergillus nidulans, Assay Type: Forward gene mutation, Assay Code: ASF+, Evaluation Type: Evaluation A (Pre-1980)) was “active; positive” and the mutagenic call (Species/Cell Type: Drosophila melanogaster, Assay Type: Aneuploidy, sex chromosome gain, chromosome aberrations, Assay Code: DAGT, Evaluation Type: Evaluation A (Pre-1980)) was “no conclusion”. The mutagenic call (Species/Cell Type: Drosophila melanogaster, Assay Type: Aneuploidy, whole sex chromosome loss, chromosome aberrations, Assay Code: DAC+M, Evaluation Type: Evaluation A (Pre-1980)) was “active; positive”, the mutagenic call [3] was “active; positive” and the mutagenic call (Species/Cell Type: Drosophila melanogaster, Sex: Male, Assay Type: Heritable translocation test, chromosome aberrations, Assay Code: DHTT, Evaluation Type: Evaluation A (Pre-1980)) was “no conclusion”. The mutagenic call (Species/Cell Type: Mammalian polychromatic erythrocytes, Assay Type: Micronucleus test, chromosome aberrations, Assay Code: MNT+, Evaluation Type: Evaluation B (Post-1980)) was “active; positive” and the mutagenic call [6] was “active; positive”.
For `COCC(O)Cn1ccnc1[N+](=O)[O-]` (centres undefined), the mutagenic call (Species/Cell Type: Escherichia coli WP2 UVRA, Assay Type: Tryptophan reverse gene mutation, Assay Code: WPU+D, Dose Response: With dose response, Evaluation Type: Evaluation A (Pre-1980)) was “active; positive”, the mutagenic call (Species/Cell Type: Mouse (C3H/10T1/2) cells, Assay Type: Cell transformation, Assay Code: CTH+D, Dose Response: With dose response, Evaluation Type: Evaluation A (Pre-1980)) was “active; positive” and the mutagenic call [6] was “active; positive”. For the same compound, the mutagenic call (Species/Cell Type: Nonhuman, Assay Type: Sister-chromatid exchange (SCE) in vivo, Assay Code: SC3T, Evaluation Type: Evaluation B (Post-1980)) was “no conclusion” and the mutagenic call [5] was “active; positive”.
`[O]=[Sn]([OH])[OH]` was tested, and the mutagenic call (Species/Cell Type: Bacillus subtilis (H17 vs M45), Assay Type: Rec-assay, spot test, DNA effects (bacterial DNA repair), Assay Code: REW-, Evaluation Type: Evaluation A (Pre-1980)) was “inactive; negative”.
In the case of `CCCCCN(CCCCO)N=O`, the mutagenic call [8] was “active; positive”.
With `C/C(O)=C1/C(=O)[C@@H]2[C@H]3c4c[nH]c5cccc(c45)C[C@H]3C(C)(C)N2C1=O` the mutagenic call (Species/Cell Type: Salmonella typhimurium (one or more of the five standard strains: TA98, TA100, TA1535, TA1537, and TA1538), Assay Type: Histidine reverse gene mutation, Ames assay, Assay Code: SALT, Evaluation Type: Evaluation A (Pre-1980)) was “no conclusion”.
